pIC50: −log10 of the molar value. Bounds are passed on as bounds.

The record followed here is patent US12351564B2, “NLRP3 modulators” (Zomagen Biosciences Ltd, priority 2019, dated 2025).

For the assay, the system named is IL-1b. The assay can be described thus: Mouse BMDM IL-1b Assay. The class given is cell-based. Particulars: Macrophage; C57BL6 bone marrow derived macrophages; 200 ng/mL Ultrapure LPS-B5 3 hours, compound 30 minutes, 5 mM ATP 45 minutes; mouse IL-1b ELISA of supernatant. How it is done: Example 8: Mouse BMDM IL-1b Assay
Mouse bone marrow cells from C57BL6 tibia and femur were culture in complete Isocov's Media supplemented with 20 ng/mL MCSF (BMDM media) at a density of 50 million cells/15 cm Petri dish. Fresh media was changed every 3 days, and bone marrow derived macrophages were collected, washed, and counted on day 7. Cells were seeded into 96 well plates at a density of 5×10^4 cells per well in 100 uL of BMDM media and cultured overnight. The cells were stimulated at 37° C. with 200 ng/mL Ultrapure LPS-B5 for 3 hours before pre-diluted compounds were added. 30 minutes after compound addition, 5 mM ATP was added for the secondary stimulation for 45 minutes. After stimulation, the plates were briefly spun down, and 50 uL of supernatant was harvested from each well. ELISA for mouse IL-1b was performed with 1:10 and 1:100 diluted supernatant using pre-coated kits. IL-1b concentrations were calculated based on pre-titrated standards, and compound inhibition IC50 is generated using the Levenberg Marquardt damped lease-square method.
The term pIC50 denotes the negative decadic logarithm of the IC50, by convention in mol/L. Lower therefore signals a high IC50. `CC(C)c1ccc(F)c(C(C)C)c1NC(=O)NS(=O)(=O)c1cc2c(o1)C1CCC(C1)C2O` (centres unmarked) [Compound 37, N-((3-fluoro-2,6-diisopropylphenyl)carbamoyl)-4-hydroxy-5,6,7,8-tetrahydro-4H-5,8-methanocyclohepta[b]furan-2-sulfonamide] gave a pIC50 of 6.00 to 7.00.
`CC(C)c1cccc(C(C)C)c1CC(=O)NS(=O)(=O)c1cc2c(o1)C1CCC(CC1)C2(C)O` (centres unmarked) [Compound 38, 2-(2,6-diisopropylphenyl)-N-((4-hydroxy-4-methyl-5,6,7,8-tetrahydro-4H-5,8-ethanocyclohepta[b]furan-2-yl)sulfonyl)acetamide] had a pIC50 of 6.00 to 7.00.
With `C[C@@]1(O)c2cc(S(=O)(=O)NC(=O)Nc3c4c(cc5c3CCC5)CCC4)oc2[C@H]2CC[C@@H]1C2` [Compound 39, (4S,5R,8S)-N-((1,2,3,5,6,7-hexahydro-s-indacen-4-yl)carbamoyl)-4-hydroxy-4-methyl-5,6,7,8-tetrahydro-4H-5,8-methanocyclohepta[b]furan-2-sulfonamide] the figure was 6.00 to 7.00; with `C[C@]1(O)c2cc(S(=O)(=O)NC(=O)Nc3c4c(cc5c3CCC5)CCC4)oc2[C@H]2CC[C@@H]1C2` [Compound 40, (4R,5R,8S)-N-((1,2,3,5,6,7-hexahydro-s-indacen-4-yl)carbamoyl)-4-hydroxy-4-methyl-5,6,7,8-tetrahydro-4H-5,8-methanocyclohepta[b]furan-2-sulfonamide], greater than 7.00.
On to `C[C@@]1(O)c2cc(S(=O)(=O)NC(=O)Nc3c4c(cc5c3CCC5)CCC4)oc2[C@@H]2CC[C@H]1C2` [Compound 41, (4S,5S,8R)-N-((1,2,3,5,6,7-hexahydro-s-indacen-4-yl)carbamoyl)-4-hydroxy-4-methyl-5,6,7,8-tetrahydro-4H-5,8-methanocyclohepta[b]furan-2-sulfonamide], for which the pIC50 is greater than 7.00.
Compound `C[C@]1(O)c2cc(S(=O)(=O)NC(=O)Nc3c4c(cc5c3CCC5)CCC4)oc2[C@@H]2CC[C@H]1C2` [Compound 42, (4R,5S,8R)-N-((1,2,3,5,6,7-hexahydro-s-indacen-4-yl)carbamoyl)-4-hydroxy-4-methyl-5,6,7,8-tetrahydro-4H-5,8-methanocyclohepta[b]furan-2-sulfonamide] gave a pIC50 greater than 7.00.
With `C[C@@]1(O)c2cc(S(=O)(=O)NC(=O)Nc3c4c(cc5c3CCC5)CCC4)oc2C2CCC1CC2` [Compound 43, (S)-N-((1,2,3,5,6,7-hexahydro-s-indacen-4-yl)carbamoyl)-4-hydroxy-4-methyl-5,6,7,8-tetrahydro-4H-5,8-ethanocyclohepta[b]furan-2-sulfonamide] the figure was greater than 7.00; with `C[C@]1(O)c2cc(S(=O)(=O)NC(=O)Nc3c4c(cc5c3CCC5)CCC4)oc2C2CCC1CC2` [Compound 44, (R)-N-((1,2,3,5,6,7-hexahydro-s-indacen-4-yl)carbamoyl)-4-hydroxy-4-methyl-5,6,7,8-tetrahydro-4H-5,8-ethanocyclohepta[b]furan-2-sulfonamide], greater than 7.00; with `CC1(O)c2cc(S(=O)(=O)NC(=O)Nc3c4c(cc5c3CCC5)CCC4)sc2C2CCC1CC2` (centres unmarked) [Compound 45, N-((1,2,3,5,6,7-hexahydro-s-indacen-4-yl)carbamoyl)-4-hydroxy-4-methyl-5,6,7,8-tetrahydro-4H-5,8-ethanocyclohepta[b]thiophene-2-sulfonamide], greater than 7.00.
Take `O=C(Nc1c2c(cc3c1CCC3)CCC2)NS(=O)(=O)c1cc2c(o1)C1CCC(CC1)C2CO` (centres unmarked) [Compound 46, N-((1,2,3,5,6,7-hexahydro-s-indacen-4-yl)carbamoyl)-4-(hydroxymethyl)-5,6,7,8-tetrahydro-4H-5,8-ethanocyclohepta[b]furan-2-sulfonamide]: the pIC50 is greater than 7.00.
Under `CC1(O)c2cc(S(=O)(=O)NC(=O)Nc3c4c(cc5c3CCC5)CCC4)sc2C2CCC1C2` (centres unmarked) [Compound 47, N-((1,2,3,5,6,7-hexahydro-s-indacen-4-yl)carbamoyl)-4-hydroxy-4-methyl-5,6,7,8-tetrahydro-4H-5,8-methanocyclohepta[b]thiophene-2-sulfonamide] stands greater than 7.00; under `O=C(Nc1c2c(cc3c1CCC3)CCC2)NS(=O)(=O)c1cc2c(s1)C1CCC(C1)C2O` (centres unmarked) [Compound 48, N-((1,2,3,5,6,7-hexahydro-s-indacen-4-yl)carbamoyl)-4-hydroxy-5,6,7,8-tetrahydro-4H-5,8-methanocyclohepta[b]thiophene-2-sulfonamide], greater than 7.00.
For the compound `O=C(Nc1c2c(cc3c1CCC3)CCC2)NS(=O)(=O)c1cc2c(o1)[C@H]1CC[C@H](C1)C2O` (stereo partly drawn) [Compound 49, (5R,8S)-N-((1,2,3,5,6,7-hexahydro-s-indacen-4-yl)carbamoyl)-4-hydroxy-5,6,7,8-tetrahydro-4H-5,8-methanocyclohepta[b]furan-2-sulfonamide], the pIC50 was 6.00 to 7.00.
Under `O=C(Nc1c2c(cc3c1CCC3)CCC2)NS(=O)(=O)c1cc2c(o1)[C@@H]1CC[C@@H](C1)C2O` (stereo partly drawn) [Compound 50, (5S,8R)-N-((1,2,3,5,6,7-hexahydro-s-indacen-4-yl)carbamoyl)-4-hydroxy-5,6,7,8-tetrahydro-4H-5,8-methanocyclohepta[b]furan-2-sulfonamide] stands greater than 7.00.
